How the values were obtained:
[1] = system: ILM, the epiretinal membrane; assay: ILM / epiretinal membrane peeling with indocyanine green staining in human patients; assay type: in vivo; conditions: human patients having macular holes, epiretinal membranes, or both
Text: The procedures of Example are followed using human patients having macular holes, epiretinal membrances, or both.

[2] = Contrast characteristics of indocyanine green colorant after exposure; assay type: physicochemical; conditions: exposed to air, room temperature and lighted atmospheric conditions; at least 8 hours up to one month after exposure, or longer
[3] = system: retinal ILM
[4] = upon mixing; as marketed; cited from earlier work

Compound: CC1(C)C(/C=C/C=C/C=C/C=C2\N(CCCCS(=O)(=O)O)c3ccc4ccccc4c3C2(C)C)=[N+](CCCCS(=O)(=O)[O-])c2ccc3ccccc3c21 [indocyanine green]
- peeling of the ILM, the epiretinal membrane or both [1]: Successful peeling
- contrast characteristics after exposure [2]: satisfactory contrast characteristics
- staining of the underlying retina ([3]; after the ICG is removed, needle penetrated through the ILM): unstained underlying retina
- staining of the underlying ILM when posterior hyaloid remains attached ([3]; compared with globes in which the posterior cortical vitreous was removed prior to ICG injection): less staining of the underlying ILM
- effect of staining on ILM peeling ([3]; contrast between stained ILM and unstained retina): facilitates the continuation of ILM peeling
- fluorescence stability [4]: about 10 hours

Reference: patent publication US20060235068A1, “OPHTHALMOLOGICAL SURGERY COLORANT AND DELIVERY SYSTEM” (priority 2000, published 2006)
